Assay results taken from US7838674B2, “Tetracyclic lactame derivatives” (Novartis AG, priority 2007, dated 2010).
Where a name gives a salt, the structure may show the parent alone.

biological target: T1, MAPKAPK2 enzyme (HIS-MK2, Invitrogen PV4019) (Homo sapiens, UniProt P49137); assay: Alternative MAPKAPK2 assay (Caliper microfluidic mobility shift, HSP27-peptide); assay type: biochemical; details: HIS-MK2 0.013 nM, ATP 10 μM, 60 min at 30° C.
T1 construct: His; purchased Invitrogen PV4019
T1 sequence (P49137 whole entry): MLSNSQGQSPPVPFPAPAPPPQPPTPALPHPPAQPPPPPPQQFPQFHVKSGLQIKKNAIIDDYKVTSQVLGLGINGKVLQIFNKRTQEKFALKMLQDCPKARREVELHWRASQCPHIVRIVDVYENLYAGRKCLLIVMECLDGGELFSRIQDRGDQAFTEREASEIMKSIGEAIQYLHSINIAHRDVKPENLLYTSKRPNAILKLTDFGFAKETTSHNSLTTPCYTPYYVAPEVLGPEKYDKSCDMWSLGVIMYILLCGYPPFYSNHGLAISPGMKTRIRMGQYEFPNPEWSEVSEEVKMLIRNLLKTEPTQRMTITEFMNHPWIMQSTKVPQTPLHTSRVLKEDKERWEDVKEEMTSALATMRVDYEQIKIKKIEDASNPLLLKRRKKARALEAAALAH

SMILES | IC50
COc1ccc(-c2cc3c(cn2)CCc2c-3[nH]c3c2C(=O)N[C@@H]2CC[C@H]32)cc1 (racemic) [Example 50, (+)-2-(2-Amino-cyclobutyl)-8-(4-methoxy-phenyl)-4,5-dihydro-1H-pyrrolo[2,3-f]isoquinoline-3-carboxylic acid lactam] | 21 nM
COc1ccc(-c2cc3c(cn2)CCc2c-3[nH]c3c2C(=O)N[C@@H]2C[C@H]32)cc1 (racemic) [Example 52, (+)-2-(2-Amino-cyclopropyl)-8-(4-methoxy-phenyl)-4,5-dihydro-1H-1,7-diaza-cyclopenta[a]naphthalene-3-carboxylic acid lactam] | 35 nM
O=C1NC2CCC2c2[nH]c3c(c21)CCc1cnc(-c2cccc(F)c2)cc1-3 (single isomer, unassigned; (+)) [Example 51, (+)-2-(2-Amino-cyclobutyl)-8-(3-fluoro-phenyl)-4,5-dihydro-1H-pyrrolo[2,3-f]isoquinoline-3-carboxylic acid lactam] | 28 nM
COc1ccc(-c2cc3c(cn2)CCc2c4c(n(C)c2-3)CC2(CNC2)NC4=O)cc1 [Example 38, 2-(3-Amino-azetidin-3-ylmethyl)-8-(4-methoxy-phenyl)-1-methyl-4,5-dihydro-1H-pyrrolo[2,3-f]isoquinoline-3-carboxylic acid lactam hydrochloride] | 20 nM
COc1ccc(-c2cc3c(cn2)CCc2c-3oc3c2C(=O)NC2(CNC2)C3)cc1 [Example 41, 2-(3-Amino-azetidin-3-ylmethyl)-8-(4-methoxy-phenyl)-4,5-dihydro-furo[2,3-f]isoquinoline-3-carboxylic acid lactam hydrochloride] | 21 nM
COc1ccc(-c2cc3c(cn2)CCc2c-3[nH]c3c2C(=O)NCC32CC2)cn1 [Example 54, 2-(1-Aminomethyl-cyclopropyl)-8-(6-methoxy-pyridin-3-yl)-4,5-dihydro-1H-pyrrolo[2,3-f]isoquinoline-3-carboxylic acid lactam] | 22 nM
COc1cncc(-c2cc3c(cn2)CCc2c-3[nH]c3c2C(=O)NCC32CC2)c1 [Example 55, 2-(1-Aminomethyl-cyclopropyl)-8-(5-methoxy-pyridin-3-yl)-4,5-dihydro-1H-pyrrolo[2,3-f]isoquinoline-3-carboxylic acid lactam] | 11 nM
CCOc1ccc(-c2ncc3c(n2)-c2c(c4c(n2C)CC2(CNC2)NC4=O)CC3)cc1 [Example 59, 2-(3-Amino-azetidin-3-ylmethyl)-8-(4-ethoxyphenyl)-1-methyl-4,5-dihydro-1H-1,7,9-triaza-cyclopenta[a]naphthalene-3-carboxylic acid lactam hydrochloride] | 13 nM
N#Cc1ccc(-c2cc3c(cn2)CCc2c-3[nH]c3c2C(=O)NC2(CC2)C3)cc1 [Example 60, 2-(1-Amino-cyclopropylmethyl)-8-(4-cyano-phenyl)-4,5-dihydro-1H-pyrrolo[2,3-f]isoquinoline-3-carboxylic acid lactam] | 75 nM
N#Cc1ccc(-c2cc3c(cn2)CCc2c-3[nH]c3c2C(=O)NC2(CC2)C3)cn1 [Example 63, 2-(1-Amino-cyclopropylmethyl)-8-(6-cyano-pyridin-3-yl)-4,5-dihydro-1H-pyrrolo[2,3-f]isoquinoline-3-carboxylic acid lactam] | 89 nM
O=C1NC2(CC2)Cc2[nH]c3c(c21)CCc1cnc(-c2ccc(CN4CCCCC4)cc2)cc1-3 [Example 65, 2-(1-Amino-cyclopropylmethyl)-8-(4-piperidin-1-ylmethyl-phenyl)-4,5-dihydro-1H-pyrrolo[2,3-f]isoquinoline-3-carboxylic acid lactam] | 46 nM
O=C1NC2(CC2)Cc2[nH]c3c(c21)CCc1cnc(-c2ccc4c(c2)OCCO4)cc1-3 [Example 66, 2-(1-Amino-cyclopropylmethyl)-8-(2,3-dihydro-benzo[1,4]dioxin-6-yl)-4,5-dihydro-1H-pyrrolo[2,3-f]isoquinoline-3-carboxylic acid lactam] | 60 nM
CN(C)c1ccc(-c2cc3c(cn2)CCc2c-3[nH]c3c2C(=O)NC2(CC2)C3)cn1 [Example 68, 2-(1-Amino-cyclopropylmethyl)-8-6-dimethylamino-pyridin-3-yl-4,5-dihydro-1H-pyrrolo[2,3-f]isoquinoline-3-carboxylic acid lactam] | 49 nM
Cc1ccc(-c2cc3c(cn2)CCc2c-3[nH]c3c2C(=O)NC2(CC2)C3)cn1 [Example 69, 2-(1-Amino-cyclopropylmethyl)-8-(6-methyl-pyridin-3-yl)-4,5-dihydro-1H-pyrrolo[2,3-f]isoquinoline-3-carboxylic acid lactam] | 35 nM
C#Cc1cc(-c2cc3c(cn2)CCc2c-3[nH]c3c2C(=O)NC2(CC2)C3)ccc1OC [Example 75, 2-(1-Amino-cyclopropylmethyl)-8-(3-ethynyl-4-methoxy-phenyl)-4,5-dihydro-1H-pyrrolo[2,3-f]isoquinoline-3-carboxylic acid lactam] | 98 nM
CC(C)(O)CCc1ccc(-c2cc3c(cn2)CCc2c-3[nH]c3c2C(=O)NC2(CC2)C3)cc1 [Example 77, 2-(1-Amino-cyclopropylmethyl)-8-[4-(3-hydroxy-3-methyl-butyl)-phenyl]-4,5-dihydro-1H-pyrrolo[2,3-f]isoquinoline-3-carboxylic acid lactam] | 85 nM
CC(C)(N)CCc1ccc(-c2cc3c(cn2)CCc2c-3[nH]c3c2C(=O)NC2(CC2)C3)cc1 [Example 78, 2-(1-Amino-cyclopropylmethyl)-8-[4-(3-amino-3-methyl-butyl)-phenyl]-4,5-dihydro-1H-pyrrolo[2,3-f]isoquinoline-3-carboxylic acid lactam] | 18 nM
CC(C)(N)C#Cc1ccc(-c2cc3c(cn2)CCc2c-3[nH]c3c2C(=O)NC2(CC2)C3)cc1 [Example 82, 2-(1-Amino-cyclopropylmethyl)-8-[4-(3-amino-3-methyl-but-1-ynyl)-phenyl]-4,5-dihydro-1H-pyrrolo[2,3-f]isoquinoline-3-carboxylic acid lactam] | 24 nM
Nc1ccc(-c2cc3c(cn2)CCc2c-3[nH]c3c2C(=O)NC2(CCC2)C3)cn1 [Example 101, 2-(1-Amino-cyclobutylmethyl)-8-(6-amino-pyridin-3-yl)-4,5-dihydro-1H-pyrrolo[2,3-f]isoquinoline-3-carboxylic acid lactam] | 98 nM
Cc1cncc(-c2cc3c(cn2)CCc2c-3[nH]c3c2C(=O)NC2(CCC2)C3)c1 [Example 102, 2-(1-Amino-cyclobutylmethyl)-8-(5-methyl-pyridin-3-yl)-4,5-dihydro-1H-pyrrolo[2,3-f]isoquinoline-3-carboxylic acid lactam] | 62 nM
O=C1NC2(CCC2)Cc2[nH]c3c(c21)CCc1cnc(-c2cccnc2)cc1-3 [Example 104, 2-(1-Amino-cyclobutylmethyl)-8-pyridin-3-yl-4,5-dihydro-1H-pyrrolo[2,3-f]isoquinoline-3-carboxylic acid lactam] | 67 nM
Cc1ccc(-c2cc3c(cn2)CCc2c-3[nH]c3c2C(=O)NCC32CC2)cn1 [Example 111, 2-(1-Aminomethyl-cyclopropyl)-8-(6-methyl-pyridin-3-yl)-4,5-dihydro-1H-pyrrolo[2,3-f]isoquinoline-3-carboxylic acid lactam] | 5 nM
